Common to all, as to format: cell-based, human
For test [1], the system named is MMP. Put plainly: Zymography of conditioned media. The method, then: (§1) FIG. 9. FGF-2 stimulates Matrigel invasion of N-cadherin-expressing cells and expression of MMP-9. (A) Invasion through Matrigel-coated filters of control and N-cadherin-expressing cells, pretreated for 24 h with 10 ng/ml of FGF-2 or left untreated, as measured 5 h after inoculation into Transwell chambers. The invading cells were stained (see Materials and Methods) and photographed using a digital microscope camera. Each panel illustrates a sample representing three to six filters. (B) Gelatinolytic activity of conditioned media of control (Neo-mass) (lanes 1 and 2) or N-cadherin-transfected MCF-7 cells (N-cad-mas, N-cad-5, and N-cad-17; lanes 3-8) that were either treated with FGF-2, or left untreated, as indicated. (C) Gelatinolytic activity of conditioned media of Neo-mass, N-cad-mass, N-cad-5, and N-cad- 17 that were pretreated for 24 h either with 10 ng/ml of FGF-2 (lanes 1, 3, 5 and 7, respectively) or 5 μg/ml insulin (lanes 2, 4, 6, and 8, respectively).
(§2) Secreted metalloproteinases were detected and characterized by zymography (Nakajima I et al., 1995, Br. J. Cancer. 71:1039-1045). Conditioned media were obtained by a 30-h incubation of N-cadherin and control transfected cells, which were treated overnight with or without FGF-2 (10 ng/ml) and heparin (0.1 mg/ml) in serum-free media. Conditioned media (20 μl) were loaded on 8% SDS PAGE gels that had been copolymerized with 1 mg/ml gelatin. Electrophoresis was performed under nonreducing conditions at 100 V for 2 h at 4° C. Gels were washed once for 30 min in 2.5% Triton X-100 to remove SDS, and were incubated in collagenase buffer (100 mM Tris-HCl pH 8.0, 5 mM CaCl2, 0.02% NaN3) for 40 h at 37° C. Gels were stained with 0.5% Coomassie blue in 30% methanol/10% acetic acid for 30 min at room temperature and destained in 30% methanol/10% acetic acid three times for 15 min. The presence of metalloproteinases was indicated by an unstained proteolytic zone in the substrate. […]

In test [2] the test system is N-cadherin-expressing cell lines (N-cad-mass, N-cad-5, N-cad-17). Nature of the test: Transwell migration after FGF-2 pretreatment. To be noted: pretreated 24 h with 10 ng/ml FGF-2, measured 5 h after inoculation into Transwell chambers. The method, then: (§3) FIG. 8. Stimulates cell migration of N-cadherin-expressing cells. The motility of control (Neo-mass) and N-cadherin-expressing cells (N-cad-mass, N-cad-5, and N-cad-17), pretreated for 24 h with 10 ng/ml of FGF-2 or left untreated, was measured 5 h after inoculation into the Transwell chambers. (A) The migrating cells were fixed, stained, and photographed; each panel represents an example of 3-6 replicates. (B) Bar graphs represent quantitation of triplicate wells. The experiment was repeated six times.
(§4) The ability of cells to migrate through control (migration) or invade through Matrigel-coated filters (invasion) was measured in a Boyden chamber, 8-micron Transwell filters, which were coated with or without 50 μg Matrigel (Becton Dickinson & Co.), were used according to standard protocols (Albini A et al., 1987, Cancer Res 47:3239-3245). Fibroblast conditioned medium, which was obtained by a 24-h incubation of NTH-3T3 cells with 50 μg/mL ascorbic acid in serum-free DME media, was placed in the lower chamber as a chemoattractant. […] Values for invasion were expressed as the average number of migrated cells bound per microscopic field over four fields per assay and expressed as averages for triplicate experiments.

For test [3], the system named is Neo-mass cell line. Nature of the test: Transwell migration after FGF-2 pretreatment. To be noted: pretreated 24 h with 10 ng/ml FGF-2, measured 5 h after inoculation into Transwell chambers. The method, then:
as §3, §4

The subject of test [4] is N-cadherin-expressing MCF-7 cells. Put plainly: Matrigel invasion assay after FGF-2 pretreatment. To be noted: N-cad mass, N-cad-5 and N-cad-17; 10 ng/ml FGF-2 for 24 h, 5 h of incubation. Here is the method:
(§5) FIG. 9. FGF-2 stimulates Matrigel invasion of N-cadherin-expressing cells and expression of MMP-9. (A) Invasion through Matrigel-coated filters of control and N-cadherin-expressing cells, pretreated for 24 h with 10 ng/ml of FGF-2 or left untreated, as measured 5 h after inoculation into Transwell chambers. The invading cells were stained (see Materials and Methods) and photographed using a digital microscope camera. Each panel illustrates a sample representing three to six filters. (B) Gelatinolytic activity of conditioned media of control (Neo-mass) (lanes 1 and 2) or N-cadherin-transfected MCF-7 cells (N-cad-mas, N-cad-5, and N-cad-17; lanes 3-8) that were either treated with FGF-2, or left untreated, as indicated. […] The ability of cells to migrate through control (migration) or invade through Matrigel-coated filters (invasion) was measured in a Boyden chamber, 8-micron Transwell filters, which were coated with or without 50 μg Matrigel (Becton Dickinson & Co.), were used according to standard protocols (Albini A et al., 1987, Cancer Res 47:3239-3245). […] Values for invasion were expressed as the average number of migrated cells bound per microscopic field over four fields per assay and expressed as averages for triplicate experiments.

In test [5] the test system is Neo-mass cell. Nature of the test: Matrigel invasion assay after FGF-2 pretreatment. The settings on record: 10 ng/ml FGF-2 for 24 h, 5 h of incubation. Here is the method: as §5
The subject of test [6] is MMP-9. Put plainly: Zymography of conditioned media. Here is the method: as §1, with “(C) Gelatinolytic activity of conditioned media of Neo-mass, N-cad-mass, N-cad-5, and N-cad- 17 that were pretreated for 24 h either with 10 ng/ml of FGF-2 (lanes 1, 3, 5 and 7, respectively) or 5 μg/ml insulin (lanes 2, 4, 6, and 8, respectively).” left out
FIG. 12. […] A. MCF-7 breast cancer cells expressing either control vector (control) or N-cadherin (N-cad-5) were treated with or without FGF-2 and the relative activation of MAPK was assessed by blotting the lysates with anti phospho-MAPK (P-MAPK) (upper panel A, lanes 1-4) against the total levels of MAPK in the same lysates (T-MAPK) (lower panel A, lanes 1-4). […]
Secreted metalloproteinases were detected and characterized by zymography (Nakajima I et al., 1995, Br. J. Cancer. 71:1039-1045). […]

In test [7] the test system is MMP-2. Nature of the test: Zymography of conditioned media. The settings on record: N-cadherin transfectants, FGF-2 10 ng/ml. Here is the method: as §1, §2
Test [8] relates to MAPK. Nature of the test: Anti-phospho-MAPK immunoblot of cell lysates. Here is the method: FIG. 12. N-cadherin synergizes with FGF-2 in promoting MAPK activation and MMP-9 production. A. MCF-7 breast cancer cells expressing either control vector (control) or N-cadherin (N-cad-5) were treated with or without FGF-2 and the relative activation of MAPK was assessed by blotting the lysates with anti phospho-MAPK (P-MAPK) (upper panel A, lanes 1-4) against the total levels of MAPK in the same lysates (T-MAPK) (lower panel A, lanes 1-4). B. MCF-7 breast cancer cells expressing N-cadherin (N-cad-5) were treated with or without FGF-2 in the absence or presence of a potent inhibitor of MAPK ([…]) and cell lysates were blotted with anti-P-MAPK antibodies (lower panel B) or assayed for MMP (Matrix Metallo Protease) production (upper panel B).
To determine whether N-cadherin/FGF-2-stimulated expression of MMP-9 is caused by increased MAPK activity, levels of MAPK activation in N-cadherin-expressing MCF-7 cells (N-cad-5) were compared to those found in control MCF-7 cells (Neo-mass) in response to FGF-2. Serum-starved control and N-cad-5 cells were treated with 10 ng/mL FGF-2 for 10 min and 30 μg of cell lysate were subjected to SDS-PAGE and immunobloting with either anti-phospho-MAPK (P-MAPK) or anti-total MAPK (T-MAPK).
(In general: A western blot detects proteins with antibodies after separation by electrophoresis.)

Setting [9] is: N-cad-5 cells, FGF-2 plus inhibitor.

“Also recorded” adds a separate entry of the source.

Consider “insulin: Insulin from Sigma, used at a concentration that acts through the IGF-1 receptor”, for which the MMP levels entry in test [1] (N-cad-mass, N-cad-5, N-cad-17, 5 μg/ml insulin for 24 h) is “no effect”.
Turning to “FGF-2: growth factor FGF-2, purchased from Pepro Tech”, the values for the motility result in test [2] and in test [3] were “dramatic increase” and “did not affect”, respectively. Further, in test [4], the “invasiveness through Matrigel-coated filters” value is on record as “further enhanced; also recorded: stimulates”. Also, the “invasion through Matrigel-coated filters” value in test [5] is listed as “not effect”. In test [6] (all N-cadherin transfectants, FGF-2 10 ng/ml, conditioned media), the “expression of MMP-9” value is reported as “dramatically increased; also recorded: stimulates”. In test [7], the MMP-2 production entry is reported as “absence of detectable effects”. In addition, in test [1] (Neo-mass cells, FGF-2 10 ng/ml, conditioned media), the MMP production entry is “no effect”. Also, in test [8] (N-cad-5 cells, 10 ng/mL FGF-2 for 10 min), the MAPK phosphorylation entry is listed as “marked increase”. In test [8] (control MCF-7 cells, in the presence of FGF-2), the “MAPK phosphorylation (ERK/P44 isoform)” value is on record as “only low levels of phosphorylation”.
As for `COc1cccc(-c2cc(=O)c3ccccc3o2)c1N` [PD 90859, reference compound], the “production of MMP-9 induced by FGF-2” value in test [6] (setting [9]) is “blocked”. The “phosphorylation of MAPK induced by FGF-2” value in test [8] (setting [9]) is listed as “blocked effectively”.

Values taken from patent publication US20030054985A1, “N-cadherin modulated migration, invasion, and metastasis” (priority 2000, published 2003).
